Results: patent US7371758B2, “Antimalarial pyrimidine derivatives and methods of making and using them” (National Science & Technology Development Agency, priority 2003, dated 2008)

Columns and labels:
[1] = system: E. coli; experiment: Antibacterial activity, bacterial growth inhibition, E. coli; assay type: cell-based; details: Escherichia coli, 20 hours incubation, 600 nm
Method: (§1) The IC50-values was determined from the sigmoidal curve obtained by plotting the percentages of bacterial growth against drug concentrations. These compounds have selectivity against malaria parasites with no or less effect on bacteria. The antibacterial activities to S. aureus, and E. coli are as summerized in Table 4.

[2] = target: PfDHFR N51I + C59R + S108N (Plasmodium falciparum, UniProt A7UD81, C59R/N51I/S108N); experiment: biochemical
Chain of PfDHFR N51I + C59R + S108N (A7UD81 whole entry N51I/C59R/S108N): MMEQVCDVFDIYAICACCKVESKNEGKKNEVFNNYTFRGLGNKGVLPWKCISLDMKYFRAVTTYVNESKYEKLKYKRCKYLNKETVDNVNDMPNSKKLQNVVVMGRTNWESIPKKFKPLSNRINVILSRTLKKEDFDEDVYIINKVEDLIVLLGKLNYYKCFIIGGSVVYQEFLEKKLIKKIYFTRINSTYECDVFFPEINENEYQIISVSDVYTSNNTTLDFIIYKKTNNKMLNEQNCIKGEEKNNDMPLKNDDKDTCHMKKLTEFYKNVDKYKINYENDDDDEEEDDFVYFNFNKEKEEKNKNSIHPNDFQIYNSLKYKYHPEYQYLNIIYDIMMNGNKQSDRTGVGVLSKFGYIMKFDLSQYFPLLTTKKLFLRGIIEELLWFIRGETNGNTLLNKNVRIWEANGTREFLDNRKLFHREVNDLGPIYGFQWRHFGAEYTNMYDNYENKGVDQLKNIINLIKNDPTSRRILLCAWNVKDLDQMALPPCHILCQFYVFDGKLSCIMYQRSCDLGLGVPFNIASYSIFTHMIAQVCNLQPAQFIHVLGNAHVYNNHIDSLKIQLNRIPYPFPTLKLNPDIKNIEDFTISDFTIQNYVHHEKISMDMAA

[3] = target: dihydrofolate reductase of Plasmodium falciparum, wild type (Plasmodium falciparum, UniProt A7UD81); experiment: PfDHFR enzyme inhibition constants (Ki), wild type; assay type: biochemical; details: 25° C., 340 nm
Chain of dihydrofolate reductase of Plasmodium falciparum, wild type (A7UD81 entry or part of it): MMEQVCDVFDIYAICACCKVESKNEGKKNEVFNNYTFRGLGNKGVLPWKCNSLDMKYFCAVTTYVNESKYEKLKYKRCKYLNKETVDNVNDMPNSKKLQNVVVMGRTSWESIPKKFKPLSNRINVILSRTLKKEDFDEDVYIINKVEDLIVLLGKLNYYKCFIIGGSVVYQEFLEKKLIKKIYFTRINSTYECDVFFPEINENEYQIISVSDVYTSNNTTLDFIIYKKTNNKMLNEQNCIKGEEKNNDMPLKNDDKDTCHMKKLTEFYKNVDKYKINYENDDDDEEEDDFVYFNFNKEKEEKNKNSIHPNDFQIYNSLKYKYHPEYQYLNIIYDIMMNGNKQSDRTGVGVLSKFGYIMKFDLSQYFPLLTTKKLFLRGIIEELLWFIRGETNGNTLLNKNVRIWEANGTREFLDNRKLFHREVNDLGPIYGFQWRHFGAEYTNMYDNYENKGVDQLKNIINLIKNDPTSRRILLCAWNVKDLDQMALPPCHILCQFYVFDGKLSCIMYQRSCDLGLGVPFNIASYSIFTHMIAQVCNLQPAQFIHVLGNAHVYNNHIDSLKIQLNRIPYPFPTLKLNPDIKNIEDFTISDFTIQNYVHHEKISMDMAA

[4] = system: Plasmodium falciparum TM4/8.2 (wild type); experiment: In vitro antimalarial activity, [3H]-hypoxanthine incorporation, TM4/8.2; assay type: cell-based; details: P. falciparum TM4/8.2, wild type
Method: P. falciparum strains were used in this study. P. falciparum strains were maintained continuously in human erythrocytes at 37° C. under 3% CO2 in RPMI 1640 culture media supplemented with 25 mM HEPES, pH 7.4, 0.2% NaHCO3, 40 μg/mL gentamicin and 10% human serum.
In vitro antimalarial activity was determined by using [^3H]-hypoxanthine incorporation method. The drugs were initially dissolved in DMSO and diluted with the culture media. Aliquots (25 μL) of the drug of different concentrations were dispensed in 96-well plates and 200 μL of 1.5% cell suspension of parasitized erythrocytes containing 1-2% parasitemia were added. […] The mixtures were incubated in a 3% CO2 incubator at 37° C. After 24 h of incubation, 25 μL (0.25 μCi) of [^3H]-hypoxanthine were added to each well. The parasite cultures were further incubated under the same condition for 18-24 h. DNA of parasites was harvested onto glass filter paper. The filters were air-dried and 20 μL liquid scintillation fluid was added. The radioactivity on the filters was then measured using a microplate scintillation counter. […] Examples of the invented compounds in this series with active antimalarial activity against wild type and in particular against parasites carrying single, double, triple, and quadruple mutant enzymes are as summarized in Table 2.

[5] = Cytotoxicity to mammalian cells, Vero; assay type: cell-based; details: African green monkey, Vero cells (African green monkey kidney epithelial cells)
[6] = target: T1, PfDHFR C59R + S108N (Plasmodium falciparum, UniProt A7UD81, C59R/S108N); experiment: PfDHFR enzyme inhibition constants (Ki), double mutant C59R + S108N; assay type: biochemical
T1 construct: made in house; host or cells: E. coli BL21 (DE3)pLysS
T1 sequence (A7UD81 whole entry C59R/S108N): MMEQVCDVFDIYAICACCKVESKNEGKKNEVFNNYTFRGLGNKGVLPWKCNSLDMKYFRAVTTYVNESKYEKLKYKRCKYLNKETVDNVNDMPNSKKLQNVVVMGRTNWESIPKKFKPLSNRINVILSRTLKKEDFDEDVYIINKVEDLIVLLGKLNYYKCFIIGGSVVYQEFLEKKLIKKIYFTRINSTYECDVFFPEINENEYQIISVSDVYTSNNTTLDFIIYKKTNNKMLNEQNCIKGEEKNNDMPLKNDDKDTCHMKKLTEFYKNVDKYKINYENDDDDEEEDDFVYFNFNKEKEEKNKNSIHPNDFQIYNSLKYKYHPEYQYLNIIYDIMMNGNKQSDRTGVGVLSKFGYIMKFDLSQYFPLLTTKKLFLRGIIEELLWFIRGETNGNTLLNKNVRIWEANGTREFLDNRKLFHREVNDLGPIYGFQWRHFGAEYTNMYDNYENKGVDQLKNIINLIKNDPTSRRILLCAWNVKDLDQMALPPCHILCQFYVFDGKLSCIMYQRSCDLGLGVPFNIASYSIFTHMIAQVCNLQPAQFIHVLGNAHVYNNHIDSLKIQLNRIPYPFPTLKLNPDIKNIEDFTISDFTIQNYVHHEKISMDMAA

[7] = target: PfDHFR C59R + S108N + I164L (Plasmodium falciparum, UniProt A7UD81, C59R/I164L/S108N); experiment: biochemical
Chain of PfDHFR C59R + S108N + I164L (A7UD81 whole entry C59R/S108N/I164L): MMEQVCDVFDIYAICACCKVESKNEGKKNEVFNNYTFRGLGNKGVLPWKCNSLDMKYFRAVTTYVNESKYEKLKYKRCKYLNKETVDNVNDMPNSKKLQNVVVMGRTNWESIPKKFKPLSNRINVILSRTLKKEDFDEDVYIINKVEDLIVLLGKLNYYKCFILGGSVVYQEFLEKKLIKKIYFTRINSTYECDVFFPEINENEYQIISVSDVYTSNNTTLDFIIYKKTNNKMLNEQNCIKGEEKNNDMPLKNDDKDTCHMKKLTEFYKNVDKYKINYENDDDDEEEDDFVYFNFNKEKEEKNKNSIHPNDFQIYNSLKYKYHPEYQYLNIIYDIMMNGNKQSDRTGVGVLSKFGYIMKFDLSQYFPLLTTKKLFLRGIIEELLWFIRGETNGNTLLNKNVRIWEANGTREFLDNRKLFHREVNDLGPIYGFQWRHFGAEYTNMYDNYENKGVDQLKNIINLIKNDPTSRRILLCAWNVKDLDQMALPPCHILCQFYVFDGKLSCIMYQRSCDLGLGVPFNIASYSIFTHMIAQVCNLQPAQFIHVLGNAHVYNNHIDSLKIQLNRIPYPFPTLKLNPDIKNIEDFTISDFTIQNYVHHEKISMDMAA

[8] = Cytotoxicity to mammalian cells, KB; assay type: cell-based; details: human, KB cells (human epidermoid carcinoma)
Method: (§2) Cytotoxicity tests of the invented compounds against African green monkey kidney fibroblast (Vero cells), Human epidermoid carcinoma (KB) cells, Human breast cancer (BC) cells were performed according to the protocol described by Skehan et al (1990). These compounds have selectivity against malaria parasites with no or less effect on mammalian cell lines.

[9] = target: T2, PfDHFR N51I + C59R + S108N + I164L (Plasmodium falciparum, UniProt A7UD81, C59R/I164L/N51I/S108N); experiment: PfDHFR enzyme inhibition constants (Ki), quadruple mutant N51I + C59R + S108N + I164L; assay type: biochemical
T2 construct: made in house; host or cells: E. coli BL21 (DE3)pLysS
T2 sequence (A7UD81 whole entry N51I/C59R/S108N/I164L): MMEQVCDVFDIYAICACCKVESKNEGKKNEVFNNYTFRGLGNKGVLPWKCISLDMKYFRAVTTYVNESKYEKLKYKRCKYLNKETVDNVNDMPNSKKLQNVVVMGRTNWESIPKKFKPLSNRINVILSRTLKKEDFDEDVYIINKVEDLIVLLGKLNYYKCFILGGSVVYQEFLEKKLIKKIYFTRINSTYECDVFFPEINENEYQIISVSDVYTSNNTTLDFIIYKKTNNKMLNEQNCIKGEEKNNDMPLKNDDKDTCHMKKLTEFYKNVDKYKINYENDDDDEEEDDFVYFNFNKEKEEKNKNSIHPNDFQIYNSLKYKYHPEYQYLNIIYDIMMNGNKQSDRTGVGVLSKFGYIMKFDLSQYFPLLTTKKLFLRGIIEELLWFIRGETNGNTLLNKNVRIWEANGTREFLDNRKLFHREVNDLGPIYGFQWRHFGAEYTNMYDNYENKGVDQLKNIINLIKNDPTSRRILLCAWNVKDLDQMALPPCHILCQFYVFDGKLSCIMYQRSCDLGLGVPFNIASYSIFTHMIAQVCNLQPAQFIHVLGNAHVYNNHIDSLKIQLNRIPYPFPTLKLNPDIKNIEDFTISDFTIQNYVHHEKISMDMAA

[10] = system: Staphylococcus aureus; experiment: Antibacterial activity, bacterial growth inhibition, S. aureus; assay type: cell-based; details: 20 hours incubation, 600 nm
Method: as §1

[11] = target: T3, PfDHFR S108N (Plasmodium falciparum, UniProt A7UD81, S108N); experiment: PfDHFR enzyme inhibition constants (Ki), single mutant S108N; assay type: biochemical
T3 construct: made in house; host or cells: E. coli BL21 (DE3)pLysS
T3 sequence (A7UD81 whole entry S108N): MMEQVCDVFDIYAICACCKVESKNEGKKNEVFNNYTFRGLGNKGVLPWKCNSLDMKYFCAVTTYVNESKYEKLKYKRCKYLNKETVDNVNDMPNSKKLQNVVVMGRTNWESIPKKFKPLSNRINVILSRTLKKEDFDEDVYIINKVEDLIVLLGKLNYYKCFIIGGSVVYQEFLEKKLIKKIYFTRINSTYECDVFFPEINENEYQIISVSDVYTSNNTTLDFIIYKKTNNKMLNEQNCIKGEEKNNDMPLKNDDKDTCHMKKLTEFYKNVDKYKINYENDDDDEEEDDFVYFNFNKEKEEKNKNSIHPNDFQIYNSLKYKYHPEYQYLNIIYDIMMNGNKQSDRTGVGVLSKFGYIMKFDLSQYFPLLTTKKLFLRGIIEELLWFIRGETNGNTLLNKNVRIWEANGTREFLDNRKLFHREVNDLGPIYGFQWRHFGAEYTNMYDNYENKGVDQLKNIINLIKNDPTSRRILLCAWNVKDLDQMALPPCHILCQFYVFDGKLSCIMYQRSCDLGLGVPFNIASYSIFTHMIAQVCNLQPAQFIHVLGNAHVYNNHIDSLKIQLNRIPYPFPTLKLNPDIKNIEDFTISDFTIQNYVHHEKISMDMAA

[12] = Cytotoxicity to mammalian cells, BC; assay type: cell-based; details: human, BC cells (human breast cancer)
Method: as §2

Compound | IC50 [1] [nM] | Ki [2] [nM] | Ki [3] [nM] | IC50 [4] [nM] | IC50 [5] [nM] | Ki [6] [nM] | Ki [7] [nM] | IC50 [8] [nM] | Ki [9] [nM] | IC50 [10] [nM] | Ki [11] [nM] | IC50 [12] [nM]
COc1ccc(CCCc2nc(N)nc(N)c2-c2cccc(Cl)c2)cc1 [Example 5, 2,4-diamino-5-(3-chlorophenyl)-6-[3-(4-methoxyphenyl)propyl]pyrimidine] | > 50000 | 1.3 ± 0.1 | 2.2 ± 0.6 | 410 ± 50 | 3000 | 6 ± 0.6 | 2.9 ± 0.3 | 15000 | 2 ± 0.4 | 38000 | 4 ± 0.2 | 3000
COc1cc(Cc2cnc(N)nc2N)cc(OC)c1OC [Trimethoprim, reference compound] | 2300 | – | – | – | – | – | – | – | – | 6000 | – | –
Nc1nc(N)c(-c2cccc(Cl)c2)c(CCOCCCOc2ccccc2)n1 [Example 7, 2,4-diamino-5-(3-chlorophenyl)-6-[2-(3-phenoxypropyloxy)ethyl]pyrimidine] | > 50000 | 0.7 ± 0.1 | 0.4 ± 0.2 | 350 ± 80 | 15000 | 1.9 ± 0.4 | 1.3 ± 0.4 | 6400 | 1.7 ± 0.2 | > 50000 | 1.8 ± 0.3 | 4900
CCc1nc(N)nc(N)c1-c1ccc(Cl)cc1 [Pyr, pyrimethamine, reference compound] | – | – | – | 80 ± 10 | – | – | – | 109000 | – | – | – | 40000
CCCCCCc1nc(N)nc(N)c1-c1ccccc1 [Example 1, 2,4-diamino-6-(n-hexyl)-5-phenylpyrimidine] | > 10000 | 0.4 ± 0.02 | 0.3 ± 0.1 | 60 ± 20 | 55000 | 0.7 ± 0.3 | 0.7 ± 0.2 | 113000 | 1.4 ± 0.5 | > 10000 | 1.2 ± 0.3 | 268000
COC(=O)CCCc1nc(N)nc(N)c1-c1ccccc1 [Example 3, 2,4-diamino-6-(3-methoxycarbonylpropyl)-5-phenylpyrimidine] | > 50000 | 3.3 ± 0.6 | 0.6 | 390 ± 60 | 20000 | 5.5 ± 0.5 | 15 ± 3 | 71000 | 24 ± 2 | > 50000 | 1.8 ± 0.2 | 500000
COC(=O)CCCc1nc(N)nc(N)c1-c1cccc(Cl)c1 [Example 6, 2,4-diamino-5-(3-chlorophenyl)-6-(3-methoxycarbonylpropyl)pyrimidine] | > 50000 | 0.8 ± 0.2 | 0.5 | 790 ± 100 | 20000 | 2.8 ± 0.2 | 1.8 ± 0.4 | 9300 | 2.7 ± 1.2 | > 50000 | 1.7 ± 0.1 | 22800
Nc1nc(N)c(-c2cccc(Cl)c2)c(CCCc2ccccc2)n1 [Example 4, 2,4-diamino-5-(3-chlorophenyl)-6-(3-phenylpropyl)pyrimidine] | > 50000 | 2 ± 0.2 | 1.2 ± 0.2 | 670 ± 60 | 2100 | 4.2 ± 0.2 | 2.2 ± 0.3 | 1600 | 2 ± 0.8 | > 50000 | 3 ± 0.6 | 1600
Nc1nc(N)c(-c2ccccc2)c(CCCc2ccccc2)n1 [Example 2, 2,4-diamino-5-phenyl-6-(3-phenylpropyl)pyrimidine] | > 50000 | 1.1 ± 0.1 | 0.5 | 210 ± 60 | > 50000 | 2.4 ± 0.1 | 1.9 ± 0.1 | 150000 | 4.7 ± 0.9 | > 50000 | 0.9 ± 0.2 | 250000
